{
  "source": "paper PMC11157767",
  "about": "(Molecular Cancer, 2024)",
  "tested_on": "TRIM24-MET-i cells",
  "settings": "GSEA v. DMSO",
  "protocol": "The number of unique and shared differentially expressed genes between each comparison are shown in parentheses. A linear regression line is depicted along with Pearson’s correlation coefficient (r) and its associated p-value. […] Common negatively enriched genesets between all three comparisons are in bold. c, Heatmaps showing expression of Hallmark_Myc_Target_v1/2 genes for indicated cells and treatment comparisons (TRIM-MET cells were treated in vitro, TFG-MET cells in vivo). Select leading edge genes from GSEA are labeled.",
  "data": [
    {"smiles": "CNC(=O)c1ccc(-c2cnc3ncc(Cc4ccc5ncccc5c4)n3n2)cc1F", "note": "[Capmatinib]", "values": [
      {"measurement": "ES GOBP_NCRNA_METABOLIC_PROCESS", "value": -0.6039},
      {"measurement": "ES GOBP_RIBONUCLEOPROTEIN_COMPLEX_BIOGENESIS", "value": -0.6363},
      {"measurement": "ES GOBP_RIBOSOME_BIOGENESIS", "value": -0.7035},
      {"measurement": "ES GOBP_RRNA_METABOLIC_PROCESS", "value": -0.6814},
      {"measurement": "ES GOCC_90S_PRERIBOSOME", "value": -0.8257},
      {"measurement": "ES GOCC_NUCLEOLUS", "value": -0.4698},
      {"measurement": "ES GOCC_PRERIBOSOME", "value": -0.8127},
      {"measurement": "ES GOCC_RIBONUCLEOPROTEIN_COMPLEX", "value": -0.4981},
      {"measurement": "ES GOCC_SMALL_SUBUNIT_PROCESSOME", "value": -0.8233},
      {"measurement": "ES GOMF_CATALYTIC_ACTIVITY_ACTING_ON_RNA", "value": -0.4916},
      {"measurement": "ES GOMF_HYDROLASE_ACTIVITY_ACTING_ON_ACID_ANHYDRIDES", "value": -0.3694},
      {"measurement": "ES GOMF_MRNA_BINDING", "value": -0.4686},
      {"measurement": "ES GOMF_RIBONUCLEOPROTEIN_COMPLEX_BINDING", "value": -0.568},
      {"measurement": "ES GOMF_SNORNA_BINDING", "value": -0.8035},
      {"measurement": "ES HALLMARK_ADIPOGENESIS", "value": -0.2484},
      {"measurement": "ES HALLMARK_ALLOGRAFT_REJECTION", "value": -0.3747},
      {"measurement": "ES HALLMARK_ANDROGEN_RESPONSE", "value": -0.535},
      {"measurement": "ES HALLMARK_ANGIOGENESIS", "value": -0.5762},
      {"measurement": "ES HALLMARK_APICAL_JUNCTION", "value": -0.2832},
      {"measurement": "ES HALLMARK_APICAL_SURFACE", "value": 0.5506},
      {"measurement": "ES HALLMARK_APOPTOSIS", "value": -0.4219},
      {"measurement": "ES HALLMARK_BILE_ACID_METABOLISM", "value": 0.4031},
      {"measurement": "ES HALLMARK_CHOLESTEROL_HOMEOSTASIS", "value": -0.4011},
      {"measurement": "ES HALLMARK_COAGULATION", "value": -0.4551},
      {"measurement": "ES HALLMARK_COMPLEMENT", "value": -0.4981},
      {"measurement": "ES HALLMARK_DNA_REPAIR", "value": -0.2565},
      {"measurement": "ES HALLMARK_E2F_TARGETS", "value": -0.3059},
      {"measurement": "ES HALLMARK_EPITHELIAL_MESENCHYMAL_TRANSITION", "value": -0.2783},
      {"measurement": "ES HALLMARK_ESTROGEN_RESPONSE_EARLY", "value": -0.385},
      {"measurement": "ES HALLMARK_ESTROGEN_RESPONSE_LATE", "value": -0.2661},
      {"measurement": "ES HALLMARK_FATTY_ACID_METABOLISM", "value": 0.234},
      {"measurement": "ES HALLMARK_G2M_CHECKPOINT", "value": -0.3396},
      {"measurement": "ES HALLMARK_GLYCOLYSIS", "value": -0.3498},
      {"measurement": "ES HALLMARK_HEDGEHOG_SIGNALING", "value": -0.4541},
      {"measurement": "ES HALLMARK_HEME_METABOLISM", "value": 0.2869},
      {"measurement": "ES HALLMARK_HYPOXIA", "value": -0.3596},
      {"measurement": "ES HALLMARK_IL2_STAT5_SIGNALING", "value": -0.5259},
      {"measurement": "ES HALLMARK_IL6_JAK_STAT3_SIGNALING", "value": -0.2773},
      {"measurement": "ES HALLMARK_INFLAMMATORY_RESPONSE", "value": -0.4368},
      {"measurement": "ES HALLMARK_INTERFERON_ALPHA_RESPONSE", "value": 0.32},
      {"measurement": "ES HALLMARK_INTERFERON_GAMMA_RESPONSE", "value": -0.2553},
      {"measurement": "ES HALLMARK_KRAS_SIGNALING_DN", "value": 0.2731},
      {"measurement": "ES HALLMARK_KRAS_SIGNALING_UP", "value": -0.491},
      {"measurement": "ES HALLMARK_MITOTIC_SPINDLE", "value": -0.3333},
      {"measurement": "ES HALLMARK_MTORC1_SIGNALING", "value": -0.5528},
      {"measurement": "ES HALLMARK_MYC_TARGETS_V1", "value": -0.6393},
      {"measurement": "ES HALLMARK_MYC_TARGETS_V2", "value": -0.8185},
      {"measurement": "ES HALLMARK_MYOGENESIS", "value": -0.217},
      {"measurement": "ES HALLMARK_NOTCH_SIGNALING", "value": -0.4058},
      {"measurement": "ES HALLMARK_OXIDATIVE_PHOSPHORYLATION", "value": -0.3105},
      {"measurement": "ES HALLMARK_P53_PATHWAY", "value": -0.2547},
      {"measurement": "ES HALLMARK_PANCREAS_BETA_CELLS", "value": 0.3447},
      {"measurement": "ES HALLMARK_PEROXISOME", "value": 0.2566},
      {"measurement": "ES HALLMARK_PI3K_AKT_MTOR_SIGNALING", "value": -0.3267},
      {"measurement": "ES HALLMARK_PROTEIN_SECRETION", "value": -0.3279},
      {"measurement": "ES HALLMARK_REACTIVE_OXYGEN_SPECIES_PATHWAY", "value": -0.337},
      {"measurement": "ES HALLMARK_SPERMATOGENESIS", "value": 0.1852},
      {"measurement": "ES HALLMARK_TGF_BETA_SIGNALING", "value": -0.5788},
      {"measurement": "ES HALLMARK_TNFA_SIGNALING_VIA_NFKB", "value": -0.6019},
      {"measurement": "ES HALLMARK_UV_RESPONSE_DN", "value": -0.3389},
      {"measurement": "ES HALLMARK_UV_RESPONSE_UP", "value": -0.4065},
      {"measurement": "ES HALLMARK_WNT_BETA_CATENIN_SIGNALING", "value": -0.3938},
      {"measurement": "ES HALLMARK_XENOBIOTIC_METABOLISM", "value": 0.19},
      {"measurement": "ES KRIGE_RESPONSE_TO_TOSEDOSTAT_6HR_DN", "value": -0.5928},
      {"measurement": "ES KRIGE_RESPONSE_TO_TOSEDOSTAT_24HR_DN", "value": -0.6267},
      {"measurement": "ES LEE_BMP2_TARGETS_DN", "value": -0.6601},
      {"measurement": "ES PUJANA_CHEK2_PCC_NETWORK", "value": -0.5659},
      {"measurement": "ES WEI_MYCN_TARGETS_WITH_E_BOX", "value": -0.6789},
      {"measurement": "NES GOBP_NCRNA_METABOLIC_PROCESS", "value": -2.536},
      {"measurement": "NES GOBP_NCRNA_PROCESSING", "value": -2.602},
      {"measurement": "NES GOBP_RIBONUCLEOPROTEIN_COMPLEX_BIOGENESIS", "value": -2.684},
      {"measurement": "NES GOBP_RIBOSOME_BIOGENESIS", "value": -2.8623},
      {"measurement": "NES GOBP_RRNA_METABOLIC_PROCESS", "value": -2.7},
      {"measurement": "NES GOCC_90S_PRERIBOSOME", "value": -2.336},
      {"measurement": "NES GOCC_NUCLEOLUS", "value": -2.057},
      {"measurement": "NES GOCC_PRERIBOSOME", "value": -2.789},
      {"measurement": "NES GOCC_RIBONUCLEOPROTEIN_COMPLEX", "value": -2.151},
      {"measurement": "NES GOCC_SMALL_SUBUNIT_PROCESSOME", "value": -2.456},
      {"measurement": "NES GOMF_CATALYTIC_ACTIVITY_ACTING_ON_RNA", "value": -2.047},
      {"measurement": "NES GOMF_HYDROLASE_ACTIVITY_ACTING_ON_ACID_ANHYDRIDES", "value": -1.614},
      {"measurement": "NES GOMF_MRNA_BINDING", "value": -1.915},
      {"measurement": "NES GOMF_RIBONUCLEOPROTEIN_COMPLEX_BINDING", "value": -2.117},
      {"measurement": "NES GOMF_SNORNA_BINDING", "value": -2.308}
    ]}
  ]
}
